# Laboratory results taken from ChEMBL document CHEMBL1177848, “Synthesis of novel 6,6a,7,8-tetrahydro-5H-naphtho[1,2-e]pyrimido[4,5-b][1,4]diazepines under microwave irradiation as potential anti-tumor agents” (2010).
# Activity calls are given as the source filed them. The calls are words filed in the database; no cut-off is given here.
# What was measured:
# EKVX = assay: Growth inhibition of human EKVX cells after 48 hrs by sulforhodamine B assay; assay type: functional
# NCI-H226 = assay: Growth inhibition of human NCI-H226 cells after 48 hrs by sulforhodamine B assay; assay type: functional; details: NCI-H226, 48 h
# NCI-H522 [1] = assay: Growth inhibition of human NCI-H522 cells after 48 hrs by sulforhodamine B assay; assay type: functional; details: NCI-H522, 48 h
# COLO 205 = assay: Growth inhibition of human COLO205 cells after 48 hrs by sulforhodamine B assay; assay type: functional; details: COLO 205, 48 h
# HCT-116 = assay: Growth inhibition of human HCT116 cells after 48 hrs by sulforhodamine B assay; assay type: functional; details: HCT-116, 48 h
# HT-29 = assay: Growth inhibition of human HT-29 cells after 48 hrs by sulforhodamine B assay; assay type: functional; details: HT-29, 48 h
# KM12 [2] = assay: Growth inhibition of human KM12 cells after 48 hrs by sulforhodamine B assay; assay type: functional; details: KM12, 48 h
# SW-620 = assay: Growth inhibition of human SW620 cells after 48 hrs by sulforhodamine B assay; assay type: functional; details: SW-620, 48 h
# SF-295 [3] = assay: Growth inhibition of human SF295 cells after 48 hrs by sulforhodamine B assay; assay type: functional; details: SF-295, 48 h
# MDA-MB-435 [4] = assay: Growth inhibition of human MDA-MB-435 cells after 48 hrs by sulforhodamine B assay; assay type: functional; details: MDA-MB-435, 48 h
# IGROV-1 = assay: Growth inhibition of human IGROV1 cells after 48 hrs by sulforhodamine B assay; assay type: functional; details: IGROV-1, 48 h
# OVCAR-3 [5] = assay: Growth inhibition of human OVCAR-3 cells after 48 hrs by sulforhodamine B assay; assay type: functional; details: OVCAR-3, 48 h
# OVCAR-4 [6] = assay: Growth inhibition of human OVCAR4 cells after 48 hrs by sulforhodamine B assay; assay type: functional; details: OVCAR-4, 48 h
# RXF 393 [7] = assay: Growth inhibition of human RXF393 cells after 48 hrs by sulforhodamine B assay; assay type: functional; details: RXF 393, 48 h
# UO-31 [8] = assay: Growth inhibition of human UO31 cells after 48 hrs by sulforhodamine B assay; assay type: functional; details: UO-31, 48 h
# PC-3 = assay: Growth inhibition of human PC3 cells after 48 hrs by sulforhodamine B assay; assay type: functional; details: PC-3, 48 h
# BT-549 [9] = assay: Growth inhibition of human BT549 cells after 48 hrs by sulforhodamine B assay; assay type: functional; details: BT-549, 48 h
# T47D [10] = assay: Growth inhibition of human T47D cells after 48 hrs by sulforhodamine B assay; assay type: functional
# CCRF-CEM = assay: Growth inhibition of human CCRF-CEM cells at 1 uM after 48 hrs by sulforhodamine B assay; assay type: functional, cell-based
# HL-60 = assay: Growth inhibition of human HL-60(TB) cells at 1 uM after 48 hrs by sulforhodamine B assay; assay type: functional, cell-based
# K562 = assay: Growth inhibition of human K562 cells at 1 uM after 48 hrs by sulforhodamine B assay; assay type: functional, cell-based
# HOP-92 = assay: Growth inhibition of human HOP92 cells at 1 uM after 48 hrs by sulforhodamine B assay; assay type: functional, cell-based
# NCI-H460 = assay: Growth inhibition of human NCI-H460 cells at 1 uM after 48 hrs by sulforhodamine B assay; assay type: functional, cell-based
# NCI-H522 [11] = assay: Growth inhibition of human NCI-H522 cells at 1 uM after 48 hrs by sulforhodamine B assay; assay type: functional, cell-based
# NCI-H322M = assay: Growth inhibition of human […] cells at 1 uM after 48 hrs by sulforhodamine B assay; assay type: functional, cell-based
# HCT-15 = assay: Growth inhibition of human HCT15 cells at 1 uM after 48 hrs by sulforhodamine B assay; assay type: functional, cell-based
# KM12 [12] = assay: Growth inhibition of human KM12 cells at 1 uM after 48 hrs by sulforhodamine B assay; assay type: functional, cell-based
# SF-295 [13] = assay: Growth inhibition of human SF295 cells at 1 uM after 48 hrs by sulforhodamine B assay; assay type: functional, cell-based
# SF530 = assay: Growth inhibition of human SF530 cells at 1 uM after 48 hrs by sulforhodamine B assay; assay type: functional, cell-based
# LOX IMVI = assay: Growth inhibition of human LOXIMVI cells at 1 uM after 48 hrs by sulforhodamine B assay; assay type: functional, cell-based
# Malme-3M = assay: Growth inhibition of human MALME-3M cells at 1 uM after 48 hrs by sulforhodamine B assay; assay type: functional, cell-based
# MDA-MB-435 [14] = assay: Growth inhibition of human MDA-MB-435 cells at 1 uM after 48 hrs by sulforhodamine B assay; assay type: functional, cell-based
# M14 = assay: Growth inhibition of human M14 cells at 1 uM after 48 hrs by sulforhodamine B assay; assay type: functional, cell-based
# SK-MEL-28 = assay: Growth inhibition of human SK-MEL-28 cells at 1 uM after 48 hrs by sulforhodamine B assay; assay type: functional, cell-based
# OVCAR-3 [15] = assay: Growth inhibition of human OVCAR-3 cells at 1 uM after 48 hrs by sulforhodamine B assay; assay type: functional, cell-based
# OVCAR-4 [16] = assay: Growth inhibition of human OVCAR4 cells at 1 uM after 48 hrs by sulforhodamine B assay; assay type: functional, cell-based
# NCI/ADR-RES = assay: Growth inhibition of human NCI/ADR-RES cells at 1 uM after 48 hrs by sulforhodamine B assay; assay type: functional, cell-based
# RXF 393 [17] = assay: Growth inhibition of human RXF393 cells at 1 uM after 48 hrs by sulforhodamine B assay; assay type: functional, cell-based
# TK-10 = assay: Growth inhibition of human TK10 cells at 1 uM after 48 hrs by sulforhodamine B assay; assay type: functional, cell-based
# UO-31 [18] = assay: Growth inhibition of human UO31 cells at 1 uM after 48 hrs by sulforhodamine B assay; assay type: functional, cell-based
# DU-145 = assay: Growth inhibition of human DU145 cells at 1 uM after 48 hrs by sulforhodamine B assay; assay type: functional, cell-based
# MDA-MB-231 = assay: Growth inhibition of human MDA-MB-231 cells at 1 uM after 48 hrs by sulforhodamine B assay; assay type: functional, cell-based
# BT-549 [19] = assay: Growth inhibition of human BT549 cells at 1 uM after 48 hrs by sulforhodamine B assay; assay type: functional, cell-based
# T47D [20] = assay: Growth inhibition of human T47D cells at 1 uM after 48 hrs by sulforhodamine B assay; assay type: functional, cell-based
# MDA-MB-468 = assay: Growth inhibition of human MDA-MB-468 cells at 1 uM after 48 hrs by sulforhodamine B assay; assay type: functional, cell-based
# Hs-578T = assay: Growth inhibition of human Hs 578T cells at 1 uM after 48 hrs by sulforhodamine B assay; assay type: functional, cell-based
# [21] = read-out: LC50 (the source's name)
compound,measurement,setting,value
Nc1nc(N)c2c(n1)NC(c1ccc(F)cc1)C1CCc3ccccc3C1=N2 (centres undefined),GI50,EKVX,2.83 µM
same,LC50,EKVX,62.6 µM
same,GI50,NCI-H226,5.97 µM
same,LC50,NCI-H226,74.4 µM
same,GI50,NCI-H522 [1],5.66 µM
same,LC50,NCI-H522 [1],58 µM
same,GI50,COLO 205,1.62 µM
same,LC50 (50% lethal concentration),COLO 205,80.7 µM
same,GI50,HCT-116,3.04 µM
same,LC50,HCT-116,34.5 µM
same,GI50,HT-29,3.84 µM
same,CC50,HT-29; [21],38.7 µM
same,GI50,KM12 [2],4.93 µM
same,LC50 (concentration killing 50% of cells),KM12 [2],43.1 µM
same,GI50,SW-620,4.87 µM
same,LC50,SW-620,42.9 µM
same,GI50,SF-295 [3],8.64 µM
same,LC50 (50% lethal concentration),SF-295 [3],59.7 µM
same,GI50,MDA-MB-435 [4],2.84 µM
same,LC50 (concentration killing 50% of cells),MDA-MB-435 [4],35.1 µM
same,GI50,IGROV-1,7.79 µM
same,LC50 (concentration killing 50% of cells),IGROV-1,63.9 µM
same,GI50,OVCAR-3 [5],4.15 µM
same,"LC50 (lethal concentration, 50% cell kill)",OVCAR-3 [5],43.2 µM
same,GI50,OVCAR-4 [6],3.98 µM
same,LC50 (50% lethal concentration),OVCAR-4 [6],50.2 µM
same,GI50,RXF 393 [7],5.48 µM
same,LC50 (50% lethal concentration),RXF 393 [7],60.4 µM
same,GI50,UO-31 [8],3.34 µM
same,LC50,UO-31 [8],55.3 µM
same,GI50,PC-3,2.03 µM
same,LC50,PC-3,40.3 µM
same,GI50,BT-549 [9],3.89 µM
same,CC50,BT-549 [9]; [21],43.5 µM
same,GI50,T47D [10],3.86 µM
same,CC50,T47D [10]; [21],62.9 µM
same,growth inhibition (GI),CCRF-CEM,inactive
same,growth inhibition (GI),HL-60,inactive
same,growth inhibition (GI),K562,inactive
same,growth inhibition (GI),HOP-92,inactive
same,growth inhibition (GI),NCI-H460,inactive
same,growth inhibition (GI),NCI-H522 [11],inactive
same,growth inhibition (GI),NCI-H322M,inactive
same,growth inhibition (GI),HCT-15,inactive
same,growth inhibition (GI),KM12 [12],inactive
same,growth inhibition (GI),SF-295 [13],inactive
same,growth inhibition (GI),SF530,inactive
same,growth inhibition (GI),LOX IMVI,inactive
same,growth inhibition (GI),Malme-3M,inactive
same,growth inhibition (GI),MDA-MB-435 [14],inactive
same,growth inhibition (GI),M14,inactive
same,growth inhibition (GI),SK-MEL-28,inactive
same,growth inhibition (GI),OVCAR-3 [15],inactive
same,growth inhibition (GI),OVCAR-4 [16],inactive
same,growth inhibition (GI),NCI/ADR-RES,inactive
same,growth inhibition (GI),RXF 393 [17],inactive
same,growth inhibition (GI),TK-10,inactive
same,growth inhibition (GI),UO-31 [18],inactive
same,growth inhibition (GI),DU-145,inactive
same,growth inhibition (GI),MDA-MB-231,inactive
same,growth inhibition (GI),BT-549 [19],inactive
same,growth inhibition (GI),T47D [20],inactive
same,growth inhibition (GI),MDA-MB-468,inactive
same,growth inhibition (GI),Hs-578T,inactive
